Structures can show the parent of a compound that is named as a salt.
| SMILES | melting point |
| --- | --- |
| COc1ccc(-c2ccc(F)cc2)cc1CN[C@H]1CCCN(Cc2n[nH]c(=O)[nH]2)[C@H]1c1ccccc1 (as salt: hydrochloride) [Example 104, (2S,3S)-1-[5(4H)-oxo-1,2,4-triazol-3-yl]methyl-2-phenyl-3-[[2-methoxy-5-(4-fluorophenyl)benzyl]amino]piperidine dihydrochloride] | 198 to 200 °C (dec.) |
| COc1ccc(-c2ccc(C#N)cc2F)cc1CN[C@H]1CC[C@@H](C)N[C@H]1c1ccccc1 [Example 112, [2-methoxy-5-(2-fluoro-4-cyanophenyl)benzyl]-[(2S,3S,6R)-6-methyl-2-phenylpiperidin-3-yl]amine] | 301 to 302 °C (dec.) |
| COc1ccc(-c2ccc(F)cc2)cc1[C@@H](C)N[C@H]1CCCN[C@H]1c1ccccc1 (as salt: hydrochloride) [Example 101, [2-methoxy-5-(4-fluorophenyl)-(R)-α-methylbenzyl][(2S,3S)-2-phenylpiperidin-3-yl]amine dihydrochloride] | 200 to 204 °C (dec.) |
| COc1ccc(-c2ccccc2C(F)(F)F)cc1CN[C@H]1CCCN[C@H]1c1ccccc1.Cl.Cl (racemic) | 260 to 262 °C |
| COc1ccc(-c2ccc(Cl)cc2)cc1CN[C@H]1CCCN[C@H]1c1ccccc1 [Example 7, [2-methoxy-5-(4-chlorophenyl)benzyl][(2S,3S)-2-phenylpiperidin-3-yl]amine] | 272 to 274 °C (dec.) |
| COc1ccc(-c2ccc(C#N)cc2)cc1CN[C@H]1CCCN[C@H]1c1ccccc1 [Example 16, [2-methoxy-5-(4-cyanophenyl)benzyl][(2S,3S)-2-phenylpiperidin-3-yl]amine] | 277 to 278 °C (dec.) |
| COc1ccc(-c2ccc(F)cc2)cc1CN[C@H]1CCCN(Cc2nnc[nH]2)[C@H]1c1ccccc1 (as salt: hydrochloride) [Example 103, (2S,3S)-1-(1,2,4-triazol-3-ylmethyl)-2-phenyl-3-[[2-methoxy-5-(4-fluorophenyl)benzyl]amino]piperidine trihydrochloride] | 208 to 210 °C (dec.) |
| COc1ccc(-c2ccc(C#N)cc2F)cc1CN[C@H]1CCCN[C@H]1c1ccccc1 [Example 51, [2-methoxy-5-(2-fluoro-4-cyanophenyl)benzyl][(2S,3S)2-phenylpiperidin-3-yl]amine] | 280 to 281 °C (dec.) |
| COc1ccc(-c2ccc(F)cc2)cc1CN[C@H]1CCCN(Cc2n[nH]c(=O)o2)[C@H]1c1ccccc1 (as salt: hydrochloride) [Example 106, (2S,3S)-1-[5(4H)-oxo-1,3,4-oxadiazol-2-yl]methyl-2-phenyl-3-[[2-methoxy-5-(4-fluorophenyl)benzyl]amino]piperidine-dihydrochloride] | 212 to 216 °C (dec.) |
| COc1ccc(-c2ccc(F)cc2)cc1CN[C@H]1CCCN[C@H]1c1ccccc1.Cl.Cl | 277 to 279 °C (dec.) |
| COc1ccc(-c2ccc(C#N)cc2)cc1CN[C@H]1CC[C@@H](C)N[C@H]1c1ccccc1 [Example 113, [2-methoxy-5-(4-cyanophenyl)benzyl][(2S,3S,6R)6-methyl-2-phenylpiperidin-3-yl]amine] | 298 to 300 °C |
| COc1ccc(-c2ccc(F)cc2)cc1CN[C@H]1CCCN(Cc2n[nH]c(=S)[nH]2)[C@H]1c1ccccc1 (as salt: hydrochloride) [Example 105, (2S,3S)-1-[5(4H)-thioxo-1,2,4-triazol-3-yl]methyl-2-phenyl-3-[[2-methoxy-5-(4-fluorophenyl)benzyl]amino]piperidinedihydrochloride] | 180 to 182 °C (dec.) |
| COc1ccc(-c2ccc(F)cc2)cc1[C@H](C)N[C@H]1CCCN[C@H]1c1ccccc1 (as salt: hydrochloride) [Example 102, [2-methoxy-5-(4-fluorophenyl)-(S)-α-methylbenzyl][(2S,3S)-2-phenylpiperidin-3-yl]amine dihydrochloride] | 274 to 278 °C (dec.) |
